Test results taken from ChEMBL document CHEMBL1671738, “In vitro pharmacokinetic and pharmacodynamic evaluation of S-013420 against Haemophilus influenzae and Streptococcus pneumoniae” (Antimicrob Agents Chemother, 2010).
Converted amounts (≈) assume the structure as drawn.

Assays:
Streptococcus pneumoniae [1] = test: Cmax in erythromycin-resistant Streptococcus pneumoniae SR26132 clinical isolate expressing ermB gene in vitro pharmacodynamic model; assay type: ADME, organism-based; conditions: in vivo
Streptococcus pneumoniae [2] = test: Maximum antibacterial activity against erythromycin-susceptible Streptococcus pneumoniae SR26229 clinical isolate based on viable cell reduction at 24 hrs index in vitro pharmacodynamic model; assay type: ADME, organism-based
Haemophilus influenzae [3] = test: Ratio of AUC (0 to 24 hrs) to MIC in Haemophilus influenzae SR24169 clinical isolate based on viable cell reduction at 24 hrs index by minimum antibacterial activity criteria based in vitro pharmacodynamic model; assay type: functional
Streptococcus pneumoniae [4] = test: Ratio of AUC (0 to 24 hrs) to MIC in erythromycin-susceptible Streptococcus pneumoniae SR26229 clinical isolate by bacteriostatic effect criteria based in vitro pharmacodynamic model; assay type: functional
Streptococcus pneumoniae [5] = test: Half maximum antibacterial activity against erythromycin-susceptible Streptococcus pneumoniae SR26229 clinical isolate based on area above the killing curve index in vitro pharmacodynamic model; assay type: ADME, organism-based; conditions: in vivo
Haemophilus influenzae [6] = test: Ratio of Cmax to MIC in Haemophilus influenzae SR24169 clinical isolate based on area above the killing curve index by minimum antibacterial activity criteria based in vitro pharmacodynamic model; assay type: functional
Haemophilus influenzae [7] = test: Ratio of Cmax to MIC in Haemophilus influenzae SR24169 clinical isolate based on area above the killing curve index by maximum antibacterial activity criteria based in vitro pharmacodynamic model; assay type: functional
Streptococcus pneumoniae [8] = test: Antibacterial activity against erythromycin-resistant Streptococcus pneumoniae SR26132 clinical isolate expressing ermB gene by broth microdilution method; assay type: functional
Streptococcus pneumoniae [9] = test: Minimum antibacterial activity against erythromycin-resistant Streptococcus pneumoniae SR26132 clinical isolate expressing ermB gene based on viable cell reduction at 24 hrs index in vitro pharmacodynamic model; assay type: ADME, organism-based
Streptococcus pneumoniae [10] = test: Maximum antibacterial activity against erythromycin-resistant Streptococcus pneumoniae SR26143 clinical isolate expressing mefA gene based on viable cell reduction at 24 hrs index in vitro pharmacodynamic model; assay type: ADME, organism-based
Streptococcus pneumoniae [11] = test: AUC (0 to 24 hrs) in erythromycin-susceptible Streptococcus pneumoniae SR26229 clinical isolate in vitro pharmacodynamic model; assay type: ADME, organism-based; design: time < 24 hr; conditions: in vivo
Haemophilus influenzae [12] = test: Cmax in Haemophilus influenzae SR24169 clinical isolate in vitro pharmacodynamic model; assay type: ADME, organism-based; conditions: in vivo
Streptococcus pneumoniae [13] = test: Minimum antibacterial activity against erythromycin-susceptible Streptococcus pneumoniae SR26229 clinical isolate based on area above the killing curve index in vitro pharmacodynamic model; assay type: ADME, organism-based; conditions: in vivo
Streptococcus pneumoniae [14] = test: Antibacterial activity against erythromycin-susceptible Streptococcus pneumoniae SR26229 clinical isolate by broth microdilution method; assay type: functional
Haemophilus influenzae [15] = test: Ratio of AUC (0 to 24 hrs) to MIC in Haemophilus influenzae SR24169 clinical isolate based on area above the killing curve index by minimum antibacterial activity criteria based in vitro pharmacodynamic model; assay type: functional
Streptococcus pneumoniae [16] = test: Antibacterial activity against erythromycin-resistant Streptococcus pneumoniae SR26143 clinical isolate expressing mefA gene by broth microdilution method; assay type: functional
Haemophilus influenzae [17] = test: Ratio of AUC (0 to 24 hrs) to MIC in Haemophilus influenzae SR24169 clinical isolate based on area above the killing curve index by half maximum antibacterial activity criteria based in vitro pharmacodynamic model; assay type: functional
Streptococcus pneumoniae [18] = test: Half maximum antibacterial activity against erythromycin-susceptible Streptococcus pneumoniae SR26229 clinical isolate based on viable cell reduction at 24 hrs index in vitro pharmacodynamic model; assay type: ADME, organism-based
Streptococcus pneumoniae [19] = test: Minimum antibacterial activity against erythromycin-resistant Streptococcus pneumoniae SR26143 clinical isolate expressing mefA gene based on viable cell reduction at 24 hrs index in vitro pharmacodynamic model; assay type: ADME, organism-based
Haemophilus influenzae [20] = test: Ratio of AUC (0 to 24 hrs) to MIC in Haemophilus influenzae SR24169 clinical isolate by maximal efficacy criteria based in vitro pharmacodynamic model; assay type: functional
Streptococcus pneumoniae [21] = test: Half life in erythromycin-resistant Streptococcus pneumoniae SR26143 clinical isolate expressing mefA gene in vitro pharmacodynamic model; assay type: ADME, organism-based; conditions: in vivo
Streptococcus pneumoniae [22] = test: Half maximum antibacterial activity against erythromycin-resistant Streptococcus pneumoniae SR26132 clinical isolate expressing ermB gene based on area above the killing curve index in vitro pharmacodynamic model; assay type: ADME, organism-based; conditions: in vivo
Haemophilus influenzae [23] = test: %TMIC in Haemophilus influenzae SR24169 clinical isolate based on area above the killing curve index by maximum antibacterial activity criteria based in vitro pharmacodynamic model; assay type: functional
Streptococcus pneumoniae [24] = test: Ratio of AUC (0 to 24 hrs) to MIC in erythromycin-resistant Streptococcus pneumoniae SR26132 clinical isolate expressing ermB gene by maximal efficacy criteria based in vitro pharmacodynamic model; assay type: functional
Streptococcus pneumoniae [25] = test: Maximum antibacterial activity against erythromycin-resistant Streptococcus pneumoniae SR26132 clinical isolate expressing ermB gene based on area above the killing curve index in vitro pharmacodynamic model; assay type: ADME, organism-based; conditions: in vivo
Streptococcus pneumoniae [26] = test: Cmax in erythromycin-susceptible Streptococcus pneumoniae SR26229 clinical isolate in vitro pharmacodynamic model; assay type: ADME, organism-based; conditions: in vivo
Streptococcus pneumoniae [27] = test: Maximum antibacterial activity against erythromycin-resistant Streptococcus pneumoniae SR26143 clinical isolate expressing mefA gene based on area above the killing curve index in vitro pharmacodynamic model; assay type: ADME, organism-based; conditions: in vivo
Haemophilus influenzae [28] = test: AUC (0 to 24 hrs) in Haemophilus influenzae SR24169 clinical isolate in vitro pharmacodynamic model; assay type: ADME, organism-based; design: time < 24 hr; conditions: in vivo
Streptococcus pneumoniae [29] = test: Half life in erythromycin-resistant Streptococcus pneumoniae SR26132 clinical isolate expressing ermB gene in vitro pharmacodynamic model; assay type: ADME, organism-based; conditions: in vivo
Streptococcus pneumoniae [30] = test: AUC (0 to 24 hrs) in erythromycin-resistant Streptococcus pneumoniae SR26132 clinical isolate expressing ermB gene in vitro pharmacodynamic model; assay type: ADME, organism-based; design: time < 24 hr; conditions: in vivo
Haemophilus influenzae [31] = test: Ratio of Cmax to MIC in Haemophilus influenzae SR24169 clinical isolate based on area above the killing curve index by half maximum antibacterial activity criteria based in vitro pharmacodynamic model; assay type: functional
Haemophilus influenzae [32] = test: Half life in Haemophilus influenzae SR24169 clinical isolate in vitro pharmacodynamic model; assay type: ADME, organism-based; conditions: in vivo
Streptococcus pneumoniae [33] = test: AUC (0 to 24 hrs) in erythromycin-resistant Streptococcus pneumoniae SR26143 clinical isolate expressing mefA in vitro pharmacodynamic model; assay type: ADME, organism-based; design: time < 24 hr; conditions: in vivo
Streptococcus pneumoniae [34] = test: Ratio of AUC (0 to 24 hrs) to MIC in erythromycin-resistant Streptococcus pneumoniae SR26143 clinical isolate expressing mefA gene by maximal efficacy criteria based in vitro pharmacodynamic model; assay type: functional
Haemophilus influenzae [35] = test: Ratio of AUC (0 to 24 hrs) to MIC in Haemophilus influenzae SR24169 clinical isolate based on viable cell reduction at 24 hrs index by maximum antibacterial activity criteria based in vitro pharmacodynamic model; assay type: functional
Haemophilus influenzae [36] = test: %TMIC in Haemophilus influenzae SR24169 clinical isolate based on viable cell reduction at 24 hrs index by maximum antibacterial activity criteria based in vitro pharmacodynamic model; assay type: functional
Streptococcus pneumoniae [37] = test: Cmax in erythromycin-resistant Streptococcus pneumoniae SR26143 clinical isolate expressing mefA gene in vitro pharmacodynamic model; assay type: ADME, organism-based; conditions: in vivo
Streptococcus pneumoniae [38] = test: Half maximum antibacterial activity against erythromycin-resistant Streptococcus pneumoniae SR26132 clinical isolate expressing ermB gene based on viable cell reduction at 24 hrs index in vitro pharmacodynamic model; assay type: ADME, organism-based
Haemophilus influenzae [39] = test: Ratio of AUC (0 to 24 hrs) to MIC in Haemophilus influenzae SR24169 clinical isolate based on viable cell reduction at 24 hrs index by half maximum antibacterial activity criteria based in vitro pharmacodynamic model; assay type: functional
Streptococcus pneumoniae [40] = test: Maximum antibacterial activity against erythromycin-susceptible Streptococcus pneumoniae SR26229 clinical isolate based on area above the killing curve index in vitro pharmacodynamic model; assay type: ADME, organism-based; conditions: in vivo
Streptococcus pneumoniae [41] = test: Half maximum antibacterial activity against erythromycin-resistant Streptococcus pneumoniae SR26143 clinical isolate expressing mefA gene based on viable cell reduction at 24 hrs index in vitro pharmacodynamic model; assay type: ADME, organism-based
Haemophilus influenzae [42] = test: Ratio of AUC (0 to 24 hrs) to MIC in Haemophilus influenzae SR24169 clinical isolate by bacteriostatic effect criteria based in vitro pharmacodynamic model; assay type: functional
Haemophilus influenzae [43] = test: Antibacterial activity against Haemophilus influenzae SR24169 clinical isolate by broth microdilution method; assay type: functional
Streptococcus pneumoniae [44] = test: Minimum antibacterial activity against erythromycin-susceptible Streptococcus pneumoniae SR26229 clinical isolate based on viable cell reduction at 24 hrs index in vitro pharmacodynamic model; assay type: ADME, organism-based
Streptococcus pneumoniae [45] = test: Half maximum antibacterial activity against erythromycin-resistant Streptococcus pneumoniae SR26143 clinical isolate expressing mefA gene based on area above the killing curve index in vitro pharmacodynamic model; assay type: ADME, organism-based; conditions: in vivo
Streptococcus pneumoniae [46] = test: Maximum antibacterial activity against erythromycin-resistant Streptococcus pneumoniae SR26132 clinical isolate expressing ermB gene based on viable cell reduction at 24 hrs index in vitro pharmacodynamic model; assay type: ADME, organism-based
Haemophilus influenzae [47] = test: Ratio of Cmax to MIC in Haemophilus influenzae SR24169 clinical isolate based on viable cell reduction at 24 hrs index by minimum antibacterial activity criteria based in vitro pharmacodynamic model; assay type: functional
Haemophilus influenzae [48] = test: %TMIC in Haemophilus influenzae SR24169 clinical isolate based on viable cell reduction at 24 hrs index by minimum antibacterial activity criteria based in vitro pharmacodynamic model; assay type: functional
Streptococcus pneumoniae [49] = test: Ratio of AUC (0 to 24 hrs) to MIC in erythromycin-resistant Streptococcus pneumoniae SR26143 clinical isolate expressing mefA gene by bacteriostatic effect criteria based in vitro pharmacodynamic model; assay type: functional
Haemophilus influenzae [50] = test: Ratio of Cmax to MIC in Haemophilus influenzae SR24169 clinical isolate based on viable cell reduction at 24 hrs index by maximum antibacterial activity criteria based in vitro pharmacodynamic model; assay type: functional
Streptococcus pneumoniae [51] = test: Ratio of AUC (0 to 24 hrs) to MIC in erythromycin-resistant Streptococcus pneumoniae SR26132 clinical isolate expressing ermB gene by bacteriostatic effect criteria based in vitro pharmacodynamic model; assay type: functional
Streptococcus pneumoniae [52] = test: Ratio of AUC (0 to 24 hrs) to MIC in erythromycin-susceptible Streptococcus pneumoniae SR26229 clinical isolate by maximal efficacy criteria based in vitro pharmacodynamic model; assay type: functional
Streptococcus pneumoniae [53] = test: Half life in erythromycin-susceptible Streptococcus pneumoniae SR26229 clinical isolate in vitro pharmacodynamic model; assay type: ADME, organism-based; conditions: in vivo
Haemophilus influenzae [54] = test: %TMIC in Haemophilus influenzae SR24169 clinical isolate based on area above the killing curve index by minimum antibacterial activity criteria based in vitro pharmacodynamic model; assay type: functional
Haemophilus influenzae [55] = test: Ratio of AUC (0 to 24 hrs) to MIC in Haemophilus influenzae SR24169 clinical isolate based on area above the killing curve index by maximum antibacterial activity criteria based in vitro pharmacodynamic model; assay type: functional
Haemophilus influenzae [56] = test: %TMIC in Haemophilus influenzae SR24169 clinical isolate based on area above the killing curve index by half maximum antibacterial activity criteria based in vitro pharmacodynamic model; assay type: functional

CC[C@H]1OC(=O)[C@H](C)C(=O)[C@H](C)[C@@H](O[C@@H]2O[C@H](C)C[C@H](N(C)C)[C@H]2O)[C@@]2(C)C[C@@H](C)/C(=N\C(C)=O)[C@H](C)C(OC/C(=N\OCc3ccc(-n4cccn4)nc3)CO2)[C@]1(C)O (single isomer, unassigned)
Cmax (Streptococcus pneumoniae [1]): 16 ng/mL | Activity (Streptococcus pneumoniae [2]): 6.22 | Ratio (Haemophilus influenzae [3]): -2.4461 | Ratio (Streptococcus pneumoniae [4]): 9.01 | Activity (Streptococcus pneumoniae [5]): 9.96 | Ratio (Haemophilus influenzae [6]): 0 | Ratio (Haemophilus influenzae [7]): 75.7785 | MIC (Streptococcus pneumoniae [8]): 0.25 µg/mL (≈ 0.297 µM) | Activity (Streptococcus pneumoniae [9]): -2.14 | Activity (Streptococcus pneumoniae [10]): 6.12 | AUC (Streptococcus pneumoniae [11]): 70 ng·h/mL | Cmax (Haemophilus influenzae [12]): 506 ng/mL | Activity (Streptococcus pneumoniae [13]): 0 | MIC (Streptococcus pneumoniae [14]): 0.063 µg/mL (≈ 0.0749 µM) | Ratio (Haemophilus influenzae [15]): 0 | MIC (Streptococcus pneumoniae [16]): 0.125 µg/mL (≈ 0.149 µM) | Ratio (Haemophilus influenzae [17]): 6.9338 | Activity (Streptococcus pneumoniae [18]): 9.35 | Activity (Streptococcus pneumoniae [19]): 2.36 | Ratio (Haemophilus influenzae [20]): 10.8 | t1/2 (Streptococcus pneumoniae [21]): 17.6 h | Activity (Streptococcus pneumoniae [22]): 8.75 | Ratio (Haemophilus influenzae [23]): 79.0912 | Ratio (Streptococcus pneumoniae [24]): 22 | Activity (Streptococcus pneumoniae [25]): 84.15 | Cmax (Streptococcus pneumoniae [26]): 4 ng/mL | Activity (Streptococcus pneumoniae [27]): 80.2 | AUC (Haemophilus influenzae [28]): 8610 ng·h/mL | t1/2 (Streptococcus pneumoniae [29]): 17.6 h | AUC (Streptococcus pneumoniae [30]): 280 ng·h/mL | Ratio (Haemophilus influenzae [31]): 0.6894 | t1/2 (Haemophilus influenzae [32]): 2.22 h | AUC (Streptococcus pneumoniae [33]): 140 ng·h/mL | Ratio (Streptococcus pneumoniae [34]): 22.3 | Ratio (Haemophilus influenzae [35]): 6.4436 | Ratio (Haemophilus influenzae [36]): 4.6778 | Cmax (Streptococcus pneumoniae [37]): 8 ng/mL | Activity (Streptococcus pneumoniae [38]): 5.11 | Ratio (Haemophilus influenzae [39]): 10.1172 | Activity (Streptococcus pneumoniae [40]): 78.23 | Activity (Streptococcus pneumoniae [41]): 15.89 | Ratio (Haemophilus influenzae [42]): 9.63 | MIC (Haemophilus influenzae [43]): 8 µg/mL (≈ 9.51 µM) | Activity (Streptococcus pneumoniae [44]): 2.64 | Activity (Streptococcus pneumoniae [45]): 16.64 | Activity (Streptococcus pneumoniae [46]): 5.98 | Ratio (Haemophilus influenzae [47]): -2.3622 | Ratio (Haemophilus influenzae [48]): -1.1805 | Ratio (Streptococcus pneumoniae [49]): 15.2 | Ratio (Haemophilus influenzae [50]): 6.0956 | Ratio (Streptococcus pneumoniae [51]): 4.66 | Ratio (Streptococcus pneumoniae [52]): 16.3 | t1/2 (Streptococcus pneumoniae [53]): 17.6 h | Ratio (Haemophilus influenzae [54]): 0 | Ratio (Haemophilus influenzae [55]): 80.2825 | Ratio (Haemophilus influenzae [56]): 3.0676
